# Assay results published in ChEMBL document CHEMBL1201862, “PubChem BioAssay data set” (2004).
#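 Grown in 96-well plates, cells were treated for 48 hours with each compound at five concentrations. Insufficient inhibition: endpoint recorded as highest concentration tested. GI50 is the concentration that inhibits growth by half.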 Calls of active or inactive are those of the source. Rule as the data show it: active = GI50 up to about 1.1 µM and inactive = higher.
# Assays:
# Assay in all cases: NCI tumour cell line growth inhibition, 48 h
# COLO 205 = system: COLO 205
# SNB-75 = system: SNB-75
# HOP-92 = system: HOP-92
# HCC 2998 = system: HCC 2998
# SF-268 = system: SF-268
# SK-MEL-5 = system: SK-MEL-5
# PC-3 = system: PC-3
# SN12C = system: SN12C
# OVCAR-4 = system: OVCAR-4
# 786-0 = system: 786-0
# SR = system: SR
# MCF7 = system: MCF7
# NCI/ADR-RES = system: NCI/ADR-RES
# OVCAR-5 = system: OVCAR-5
# HOP-62 = system: HOP-62
# Hs-578T = system: Hs-578T
# NCI-H522 = system: NCI-H522
# CAKI-1 = system: CAKI-1
# OVCAR-3 = system: OVCAR-3
# Malme-3M = system: Malme-3M
# MDA-N = system: MDA-N
# BT-549 = system: BT-549
# ACHN = system: ACHN
# HT-29 = system: HT-29
# RPMI-8226 = system: RPMI-8226
# SNB-19 = system: SNB-19
# SF-539 = system: SF-539
# SF-295 = system: SF-295
# EKVX = system: EKVX
# MDA-MB-231 = system: MDA-MB-231
# UO-31 = system: UO-31
# MOLT-4 = system: MOLT-4
# IGROV-1 = system: IGROV-1
# CCRF-CEM = system: CCRF-CEM
# HCT-15 = system: HCT-15
# T47D = system: T47D
# KM12 = system: KM12
# M14 = system: M14
# SK-MEL-28 = system: SK-MEL-28
# U-251 = system: U-251
# HCT-116 = system: HCT-116
# NCI-H23 = system: NCI-H23
# SK-MEL-2 = system: SK-MEL-2
# TK-10 = system: TK-10
# DU-145 = system: DU-145
# UACC-257 = system: UACC-257
# A549 = system: A549
# UACC-62 = system: UACC-62
# OVCAR-8 = system: OVCAR-8
# MDA-MB-435 = system: MDA-MB-435
# NCI-H460 = system: NCI-H460
# LOX IMVI = system: LOX IMVI
# SW-620 = system: SW-620
# A498 = system: A498
# HL-60 = system: HL-60
# NCI-H226 = system: NCI-H226
# SK-OV-3 = system: SK-OV-3
# K562 = system: K562
# RXF 393 = system: RXF 393
structure (smiles),measurement,setting,value
Clc1c2nc3ccccc3c-2[nH]c2ccccc12,GI50,COLO 205,2.86 µM (inactive)
same,GI50,SNB-75,39.9 µM (inactive)
same,GI50,HOP-92,> 100 µM (inactive)
same,GI50,HCC 2998,24.5 µM (inactive)
same,GI50,SF-268,64.3 µM (inactive)
same,GI50,SK-MEL-5,3.95 µM (inactive)
same,GI50,PC-3,17.5 µM (inactive)
same,GI50,SN12C,32.7 µM (inactive)
same,GI50,OVCAR-4,> 100 µM (inactive)
same,GI50,786-0,32.5 µM (inactive)
same,GI50,SR,4.37 µM (inactive)
same,GI50,MCF7,6.28 µM (inactive)
same,GI50,NCI/ADR-RES,23.4 µM (inactive)
same,GI50,OVCAR-5,> 100 µM (inactive)
same,GI50,HOP-62,47.1 µM (inactive)
same,GI50,Hs-578T,33.7 µM (inactive)
same,GI50,NCI-H522,20.1 µM (inactive)
same,GI50,CAKI-1,9.16 µM (inactive)
same,GI50,OVCAR-3,69.7 µM (inactive)
same,GI50,Malme-3M,30.7 µM (inactive)
same,GI50,MDA-N,3.57 µM (inactive)
same,GI50,BT-549,64.1 µM (inactive)
same,GI50,ACHN,21.3 µM (inactive)
same,GI50,HT-29,4.3 µM (inactive)
same,GI50,RPMI-8226,7.96 µM (inactive)
same,GI50,SNB-19,> 100 µM (inactive)
same,GI50,SF-539,13.7 µM (inactive)
same,GI50,SF-295,< 0.01 µM (active)
same,GI50,EKVX,10.6 µM (inactive)
same,GI50,MDA-MB-231,11.7 µM (inactive)
same,GI50,UO-31,7.98 µM (inactive)
same,GI50,MOLT-4,2.9 µM (inactive)
same,GI50,IGROV-1,9.68 µM (inactive)
same,GI50,CCRF-CEM,19.2 µM (inactive)
same,GI50,HCT-15,14.4 µM
same,GI50,T47D,17.7 µM (inactive)
same,GI50,KM12,3.94 µM (inactive)
same,GI50,M14,36.2 µM (inactive)
same,GI50,SK-MEL-28,52.4 µM (inactive)
same,GI50,U-251,50.4 µM (inactive)
same,GI50,HCT-116,8.55 µM (inactive)
same,GI50,NCI-H23,11.6 µM (inactive)
same,GI50,SK-MEL-2,> 100 µM (inactive)
same,GI50,TK-10,98.4 µM (inactive)
same,GI50,DU-145,22 µM (inactive)
same,GI50,UACC-257,50.2 µM (inactive)
same,GI50,A549,34 µM (inactive)
same,GI50,UACC-62,48.8 µM (inactive)
same,GI50,OVCAR-8,29 µM (inactive)
same,GI50,MDA-MB-435,5.11 µM (inactive)
same,GI50,NCI-H460,27.2 µM (inactive)
same,GI50,LOX IMVI,11.7 µM (inactive)
same,GI50,SW-620,8.83 µM (inactive)
same,GI50,A498,43 µM (inactive)
same,GI50,HL-60,15.6 µM (inactive)
Clc1nc(Cl)nc(NC23CC4CC(CC(C4)C2)C3)n1,GI50,COLO 205,17.5 µM (inactive)
same,GI50,NCI-H226,21 µM (inactive)
same,GI50,SNB-75,17.5 µM (inactive)
same,GI50,HOP-92,17.2 µM (inactive)
same,GI50,HCC 2998,20.3 µM (inactive)
same,GI50,SF-268,19.2 µM (inactive)
same,GI50,SK-MEL-5,13.7 µM (inactive)
same,GI50,PC-3,> 34.8 µM (inactive)
same,GI50,SN12C,18.1 µM (inactive)
same,GI50,OVCAR-4,17.7 µM (inactive)
same,GI50,786-0,17.3 µM (inactive)
same,GI50,SR,20.1 µM (inactive)
same,GI50,MCF7,32.1 µM (inactive)
same,GI50,NCI/ADR-RES,21 µM (inactive)
same,GI50,OVCAR-5,19.5 µM (inactive)
same,GI50,HOP-62,17.7 µM (inactive)
same,GI50,Hs-578T,11.8 µM (inactive)
same,GI50,NCI-H522,16.7 µM (inactive)
same,GI50,CAKI-1,8.09 µM (inactive)
same,GI50,OVCAR-3,18.8 µM (inactive)
same,GI50,Malme-3M,16.2 µM (inactive)
same,GI50,MDA-N,17.4 µM (inactive)
same,GI50,BT-549,19.3 µM (inactive)
same,GI50,ACHN,35.3 µM (inactive)
same,GI50,HT-29,17.9 µM (inactive)
same,GI50,RPMI-8226,12 µM (inactive)
same,GI50,SNB-19,21.4 µM (inactive)
same,GI50,SF-539,17.5 µM (inactive)
same,GI50,SF-295,19.7 µM (inactive)
same,GI50,EKVX,19.5 µM (inactive)
same,GI50,MDA-MB-231,17.9 µM (inactive)
same,GI50,UO-31,9.33 µM (inactive)
same,GI50,MOLT-4,17.9 µM (inactive)
same,GI50,IGROV-1,13.7 µM (inactive)
same,GI50,CCRF-CEM,7.55 µM (inactive)
same,GI50,HCT-15,15.6 µM
same,GI50,T47D,17.2 µM (inactive)
same,GI50,KM12,14.9 µM (inactive)
same,GI50,M14,18 µM (inactive)
same,GI50,SK-MEL-28,19.6 µM (inactive)
same,GI50,U-251,15.5 µM (inactive)
same,GI50,HCT-116,17.1 µM (inactive)
same,GI50,NCI-H23,18.5 µM (inactive)
same,GI50,TK-10,17.7 µM (inactive)
same,GI50,DU-145,16.7 µM (inactive)
same,GI50,UACC-257,17.3 µM (inactive)
same,GI50,SK-OV-3,32.3 µM (inactive)
same,GI50,A549,20 µM (inactive)
same,GI50,UACC-62,17.9 µM (inactive)
same,GI50,OVCAR-8,18.1 µM (inactive)
same,GI50,MDA-MB-435,16.2 µM (inactive)
same,GI50,K562,13.7 µM (inactive)
same,GI50,NCI-H460,26.3 µM (inactive)
same,GI50,RXF 393,16.7 µM (inactive)
same,GI50,LOX IMVI,13.4 µM (inactive)
same,GI50,SW-620,16.7 µM (inactive)
same,GI50,A498,> 43.4 µM (inactive)
same,GI50,HL-60,3.44 µM (inactive)
Cn1c2ccccc2c2c(=S)c3ccccc3ccc21,GI50,COLO 205,67.3 µM (inactive)
same,GI50,NCI-H226,50.5 µM (inactive)
same,GI50,SNB-75,24.6 µM (inactive)
same,GI50,HOP-92,> 100 µM (inactive)
same,GI50,HCC 2998,> 100 µM (inactive)
same,GI50,SF-268,> 100 µM (inactive)
same,GI50,SK-MEL-5,44.6 µM (inactive)
same,GI50,PC-3,59.4 µM (inactive)
same,GI50,SN12C,> 100 µM (inactive)
same,GI50,OVCAR-4,44.6 µM (inactive)
same,GI50,786-0,> 100 µM (inactive)
same,GI50,SR,> 100 µM (inactive)
same,GI50,MCF7,56.8 µM (inactive)
same,GI50,NCI/ADR-RES,> 100 µM (inactive)
same,GI50,OVCAR-5,> 100 µM (inactive)
same,GI50,HOP-62,79.6 µM (inactive)
same,GI50,Hs-578T,> 100 µM (inactive)
same,GI50,NCI-H522,36.8 µM (inactive)
same,GI50,CAKI-1,> 100 µM (inactive)
same,GI50,OVCAR-3,17.8 µM (inactive)
same,GI50,Malme-3M,> 100 µM (inactive)
same,GI50,MDA-N,> 100 µM (inactive)
same,GI50,BT-549,> 100 µM (inactive)
same,GI50,ACHN,> 100 µM (inactive)
same,GI50,HT-29,63.4 µM (inactive)
same,GI50,SNB-19,> 100 µM (inactive)
same,GI50,SF-295,76 µM (inactive)
same,GI50,EKVX,85.9 µM (inactive)
same,GI50,MDA-MB-231,> 100 µM (inactive)
same,GI50,UO-31,> 100 µM (inactive)
same,GI50,MOLT-4,16.2 µM (inactive)
same,GI50,IGROV-1,81.8 µM (inactive)
same,GI50,CCRF-CEM,19 µM (inactive)
same,GI50,HCT-15,> 100 µM
same,GI50,T47D,20.7 µM (inactive)
same,GI50,KM12,55.7 µM (inactive)
same,GI50,M14,> 100 µM (inactive)
same,GI50,SK-MEL-28,> 100 µM (inactive)
same,GI50,U-251,52.8 µM (inactive)
same,GI50,HCT-116,59 µM (inactive)
same,GI50,NCI-H23,> 100 µM (inactive)
same,GI50,TK-10,> 100 µM (inactive)
same,GI50,DU-145,88.9 µM (inactive)
same,GI50,UACC-257,> 100 µM (inactive)
same,GI50,SK-OV-3,> 100 µM (inactive)
same,GI50,A549,71.4 µM (inactive)
same,GI50,UACC-62,> 100 µM (inactive)
same,GI50,OVCAR-8,56.5 µM (inactive)
same,GI50,MDA-MB-435,> 100 µM (inactive)
same,GI50,K562,43.5 µM (inactive)
same,GI50,NCI-H460,> 100 µM (inactive)
same,GI50,RXF 393,> 100 µM (inactive)
same,GI50,LOX IMVI,62.1 µM (inactive)
same,GI50,SW-620,> 100 µM (inactive)
same,GI50,A498,> 100 µM (inactive)
same,GI50,HL-60,> 100 µM (inactive)
